Results on 2 molecules are retold here after ChEMBL document CHEMBL5058643, “Data for DCP probe BI-2081” (2022).

A word on the inhibition: it is the change of the read-out against control, counted positive when it falls.

Assay [1] deals with Vasopressin V1a receptor (Homo sapiens) (UniProt P37288). Briefly: V1A/HUM Eurofins SafetyScreen44 (BI). To be noted: Compound concentration 10.0 uM.
The target of assay [2] is Cannabinoid receptor 1 (Homo sapiens) (UniProt P21554). Briefly: CB1(HU)_AGON Eurofins SafetyScreen44 (BI). To be noted: filed as agonist; Compound concentration 10.0 uM.
Chain of Cannabinoid receptor 1 (Homo sapiens) (P21554 whole entry): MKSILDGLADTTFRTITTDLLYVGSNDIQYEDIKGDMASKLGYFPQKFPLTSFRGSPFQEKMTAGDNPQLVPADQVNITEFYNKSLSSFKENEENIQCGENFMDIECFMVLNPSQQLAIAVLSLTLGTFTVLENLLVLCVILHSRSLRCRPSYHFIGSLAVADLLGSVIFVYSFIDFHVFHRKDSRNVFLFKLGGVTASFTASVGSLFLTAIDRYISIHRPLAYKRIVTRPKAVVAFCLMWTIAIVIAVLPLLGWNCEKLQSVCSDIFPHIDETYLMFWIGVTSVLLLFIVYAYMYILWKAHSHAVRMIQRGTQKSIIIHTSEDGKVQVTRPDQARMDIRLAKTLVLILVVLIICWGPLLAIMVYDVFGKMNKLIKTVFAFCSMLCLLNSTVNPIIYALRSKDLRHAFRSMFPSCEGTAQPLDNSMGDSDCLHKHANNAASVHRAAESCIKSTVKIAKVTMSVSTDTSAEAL
For assay [3], the target named is Muscarinic acetylcholine receptor M4 (Homo sapiens) (UniProt P08173). To be noted: Compound concentration 10.0 uM.
Chain of Muscarinic acetylcholine receptor M4 (Homo sapiens) (P08173 whole entry): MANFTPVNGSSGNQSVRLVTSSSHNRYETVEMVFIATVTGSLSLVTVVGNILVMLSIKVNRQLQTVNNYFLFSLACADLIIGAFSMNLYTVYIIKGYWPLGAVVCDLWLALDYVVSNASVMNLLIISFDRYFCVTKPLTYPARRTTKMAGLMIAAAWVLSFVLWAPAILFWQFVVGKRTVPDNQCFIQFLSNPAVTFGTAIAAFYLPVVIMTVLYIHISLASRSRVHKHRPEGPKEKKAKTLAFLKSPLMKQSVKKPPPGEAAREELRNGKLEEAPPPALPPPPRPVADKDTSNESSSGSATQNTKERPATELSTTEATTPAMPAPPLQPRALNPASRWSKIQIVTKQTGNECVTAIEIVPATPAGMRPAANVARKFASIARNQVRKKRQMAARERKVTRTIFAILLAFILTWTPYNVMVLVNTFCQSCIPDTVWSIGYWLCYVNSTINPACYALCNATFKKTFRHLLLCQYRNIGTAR
In assay [4] the target is D(1B) dopamine receptor (Homo sapiens) (UniProt P21918). To be noted: Compound concentration 10.0 uM.
Chain of D(1B) dopamine receptor (Homo sapiens) (P21918 whole entry): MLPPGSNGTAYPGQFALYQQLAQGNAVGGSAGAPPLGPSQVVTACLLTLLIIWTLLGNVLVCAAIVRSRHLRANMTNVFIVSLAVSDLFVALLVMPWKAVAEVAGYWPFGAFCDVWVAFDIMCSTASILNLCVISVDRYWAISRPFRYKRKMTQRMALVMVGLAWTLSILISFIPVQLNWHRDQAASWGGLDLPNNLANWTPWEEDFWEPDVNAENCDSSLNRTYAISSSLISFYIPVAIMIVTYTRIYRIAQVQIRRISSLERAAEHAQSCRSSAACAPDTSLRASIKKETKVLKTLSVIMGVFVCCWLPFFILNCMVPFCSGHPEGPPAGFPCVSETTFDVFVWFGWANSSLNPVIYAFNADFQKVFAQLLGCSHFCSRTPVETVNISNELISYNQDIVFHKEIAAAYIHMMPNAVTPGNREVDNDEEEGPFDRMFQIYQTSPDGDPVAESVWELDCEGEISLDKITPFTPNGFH
In assay [5] the target is Endothelin-1 receptor (Homo sapiens) (UniProt P25101). Description: ETA/H Eurofins SafetyScreen44 (BI). To be noted: Compound concentration 10.0 uM.
Chain of Endothelin-1 receptor (Homo sapiens) (P25101 whole entry): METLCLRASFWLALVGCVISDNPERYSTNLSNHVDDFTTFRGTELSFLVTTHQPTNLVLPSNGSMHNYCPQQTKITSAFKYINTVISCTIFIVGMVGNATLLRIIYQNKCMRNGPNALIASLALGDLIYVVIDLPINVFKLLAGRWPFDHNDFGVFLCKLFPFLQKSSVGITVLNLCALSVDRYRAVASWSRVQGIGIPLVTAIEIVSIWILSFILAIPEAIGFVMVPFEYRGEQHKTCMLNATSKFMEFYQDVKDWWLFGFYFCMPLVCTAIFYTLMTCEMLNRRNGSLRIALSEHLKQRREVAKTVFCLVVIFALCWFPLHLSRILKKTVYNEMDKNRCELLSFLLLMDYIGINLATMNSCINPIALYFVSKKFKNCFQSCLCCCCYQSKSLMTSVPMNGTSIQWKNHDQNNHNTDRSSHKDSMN
In assay [6] the target is Histamine H3 receptor (Homo sapiens) (UniProt Q9Y5N1). To be noted: Compound concentration 10.0 uM.
Chain of Histamine H3 receptor (Homo sapiens) (Q9Y5N1 whole entry): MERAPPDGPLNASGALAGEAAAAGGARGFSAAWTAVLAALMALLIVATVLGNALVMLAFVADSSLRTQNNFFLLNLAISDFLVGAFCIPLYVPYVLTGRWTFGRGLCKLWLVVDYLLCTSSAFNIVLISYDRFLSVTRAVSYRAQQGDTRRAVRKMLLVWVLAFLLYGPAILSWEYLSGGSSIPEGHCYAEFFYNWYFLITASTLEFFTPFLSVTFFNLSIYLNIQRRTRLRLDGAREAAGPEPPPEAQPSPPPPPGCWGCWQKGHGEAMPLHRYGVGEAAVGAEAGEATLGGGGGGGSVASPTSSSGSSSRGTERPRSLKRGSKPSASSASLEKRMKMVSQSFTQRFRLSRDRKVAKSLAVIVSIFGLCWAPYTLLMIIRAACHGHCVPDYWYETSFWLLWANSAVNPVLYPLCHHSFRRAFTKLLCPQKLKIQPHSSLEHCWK
Assay [7] deals with Adenosine receptor A2a (Homo sapiens) (UniProt P29274). Briefly: A2A/H Eurofins SafetyScreen44 (BI). To be noted: filed as antagonist, Compound concentration 10.0 uM.
Assay [8] has as its target Glucocorticoid receptor (Homo sapiens) (UniProt P04150). Description: GCORTICOID/H Eurofins SafetyScreen44 (BI). To be noted: Compound concentration 10.0 uM.
The target of assay [9] is GABA-A receptor; anion channel (Rattus norvegicus) (UniProt O09028+P15431+P18506+P18508+P19969+P20236+P23574+P23576+P28471+P28473+P30191+P62813+P63079+P63138+Q91ZM7+Q9ES14). To be noted: Compound concentration 10.0 uM.
For assay [10], the target named is T1, Muscarinic acetylcholine receptor M3 (Homo sapiens, UniProt P20309). To be noted: Compound concentration 10.0 uM.
T1 sequence (P20309 whole entry, looked up): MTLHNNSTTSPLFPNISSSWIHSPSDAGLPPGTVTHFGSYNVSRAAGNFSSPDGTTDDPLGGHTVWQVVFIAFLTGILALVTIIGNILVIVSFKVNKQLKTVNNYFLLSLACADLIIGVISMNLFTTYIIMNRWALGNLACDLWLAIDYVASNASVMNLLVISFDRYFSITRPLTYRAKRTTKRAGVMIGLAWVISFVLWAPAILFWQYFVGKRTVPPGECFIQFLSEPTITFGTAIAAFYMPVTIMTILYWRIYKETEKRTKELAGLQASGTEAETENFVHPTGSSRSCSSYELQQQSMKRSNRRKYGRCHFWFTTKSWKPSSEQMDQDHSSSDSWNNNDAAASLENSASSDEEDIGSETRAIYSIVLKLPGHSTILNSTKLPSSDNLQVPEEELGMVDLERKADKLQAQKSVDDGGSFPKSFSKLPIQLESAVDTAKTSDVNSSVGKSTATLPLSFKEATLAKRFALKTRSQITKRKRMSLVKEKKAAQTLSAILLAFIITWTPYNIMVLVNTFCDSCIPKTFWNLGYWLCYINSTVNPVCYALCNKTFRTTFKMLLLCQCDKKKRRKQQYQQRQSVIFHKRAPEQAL
For assay [11], the target named is Adenosine receptor A3 (Homo sapiens) (UniProt P0DMS8). Description: A3/H Eurofins SafetyScreen44 (BI). To be noted: Compound concentration 10.0 uM.
Assay [12] concerns the target Endothelin-1 receptor (Homo sapiens) (UniProt P25101). Description: ETA/HU Eurofins SafetyScreen44 (BI). To be noted: Compound concentration 10.0 uM.
Assay [13] concerns the target B2 bradykinin receptor (Homo sapiens) (UniProt P30411). Description: B2/H Eurofins SafetyScreen44 (BI). To be noted: filed as antagonist, Compound concentration 10.0 uM.
Assay [14] addresses T2, 5-hydroxytryptamine receptor 3A (Homo sapiens) (UniProt P46098).
T2 sequence (whole entry): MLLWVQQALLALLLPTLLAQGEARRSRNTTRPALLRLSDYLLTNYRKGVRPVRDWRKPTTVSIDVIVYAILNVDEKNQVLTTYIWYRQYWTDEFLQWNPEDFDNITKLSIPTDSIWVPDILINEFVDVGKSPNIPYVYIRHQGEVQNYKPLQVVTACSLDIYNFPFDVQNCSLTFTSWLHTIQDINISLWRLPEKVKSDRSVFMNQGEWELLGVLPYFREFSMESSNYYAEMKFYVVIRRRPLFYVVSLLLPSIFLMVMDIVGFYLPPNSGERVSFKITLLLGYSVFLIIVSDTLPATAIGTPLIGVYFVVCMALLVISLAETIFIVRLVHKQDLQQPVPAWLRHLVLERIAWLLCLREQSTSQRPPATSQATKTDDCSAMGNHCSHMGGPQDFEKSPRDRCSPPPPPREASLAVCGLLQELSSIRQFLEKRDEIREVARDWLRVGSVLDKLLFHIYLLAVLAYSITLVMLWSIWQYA
Description: 5HT3/HU Eurofins SafetyScreen44 (BI). To be noted: Compound concentration 10.0 uM.

Assay [15] addresses Beta-1 adrenergic receptor (Homo sapiens) (UniProt P08588). To be noted: Compound concentration 10.0 uM.
For assay [16], the target named is T1, Muscarinic acetylcholine receptor M3. Briefly: M3/HU Eurofins SafetyScreen44 (BI).
Assay [17] concerns the target Estrogen receptor (Homo sapiens) (UniProt P03372). Description: ERALPHA/H Eurofins SafetyScreen44 (BI). To be noted: Compound concentration 10.0 uM.
In assay [18] the target is Neuropeptide Y receptor type 2 (Homo sapiens) (UniProt P49146). Briefly: Y2/HU Eurofins SafetyScreen44 (BI). To be noted: Compound concentration 10.0 uM.
Chain of Neuropeptide Y receptor type 2 (Homo sapiens) (P49146 whole entry): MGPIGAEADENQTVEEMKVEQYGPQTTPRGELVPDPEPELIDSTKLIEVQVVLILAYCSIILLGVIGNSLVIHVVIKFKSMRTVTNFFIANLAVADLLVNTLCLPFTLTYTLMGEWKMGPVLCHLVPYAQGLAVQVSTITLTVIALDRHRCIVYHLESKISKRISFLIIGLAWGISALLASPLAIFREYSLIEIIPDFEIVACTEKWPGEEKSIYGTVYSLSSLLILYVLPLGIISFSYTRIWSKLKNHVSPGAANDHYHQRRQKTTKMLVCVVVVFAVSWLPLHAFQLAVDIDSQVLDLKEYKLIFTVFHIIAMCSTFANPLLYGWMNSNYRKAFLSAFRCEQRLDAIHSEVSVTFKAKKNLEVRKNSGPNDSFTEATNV
Assay [19] concerns the target T3, Alpha-1A adrenergic receptor (Homo sapiens) (UniProt P35348).
T3 sequence (whole entry): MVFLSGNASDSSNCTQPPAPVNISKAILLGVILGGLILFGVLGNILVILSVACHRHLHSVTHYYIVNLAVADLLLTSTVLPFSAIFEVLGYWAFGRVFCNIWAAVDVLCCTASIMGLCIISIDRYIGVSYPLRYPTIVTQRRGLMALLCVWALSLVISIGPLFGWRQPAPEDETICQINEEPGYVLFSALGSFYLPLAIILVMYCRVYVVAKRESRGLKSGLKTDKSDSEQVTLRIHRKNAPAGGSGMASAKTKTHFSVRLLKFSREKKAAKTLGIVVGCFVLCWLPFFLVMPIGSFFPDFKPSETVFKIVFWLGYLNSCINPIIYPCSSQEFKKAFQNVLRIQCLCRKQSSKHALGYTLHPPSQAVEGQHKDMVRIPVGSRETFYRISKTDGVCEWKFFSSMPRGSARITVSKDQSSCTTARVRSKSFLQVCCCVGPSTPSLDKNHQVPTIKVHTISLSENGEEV
To be noted: Compound concentration 10.0 uM.

In assay [20] the target is Substance-P receptor (Homo sapiens) (UniProt P25103). Briefly: NK1/HU Eurofins SafetyScreen44 (BI). To be noted: Compound concentration 10.0 uM.
Chain of Substance-P receptor (Homo sapiens) (P25103 whole entry): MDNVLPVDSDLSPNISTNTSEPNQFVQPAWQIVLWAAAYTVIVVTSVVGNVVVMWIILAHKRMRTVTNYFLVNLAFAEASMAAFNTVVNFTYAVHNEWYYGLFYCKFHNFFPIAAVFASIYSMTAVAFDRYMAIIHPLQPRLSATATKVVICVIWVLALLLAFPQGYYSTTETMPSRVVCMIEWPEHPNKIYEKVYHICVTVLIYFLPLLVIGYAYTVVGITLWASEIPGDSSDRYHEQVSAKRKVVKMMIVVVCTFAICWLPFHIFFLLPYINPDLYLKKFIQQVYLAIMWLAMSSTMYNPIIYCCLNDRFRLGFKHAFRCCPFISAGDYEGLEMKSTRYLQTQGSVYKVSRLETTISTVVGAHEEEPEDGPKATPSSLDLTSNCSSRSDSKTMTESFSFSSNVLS
In assay [21] the test system is imidazoline I2 receptor (Rattus norvegicus). Description: I2/CENTR/R Eurofins SafetyScreen44 (BI). To be noted: Compound concentration 10.0 uM.
Assay [22] deals with Nicotinic acetylcholine receptor alpha-1/beta-1 (Homo sapiens) (UniProt P02708+P11230). Briefly: NACH_BS_N/H Eurofins SafetyScreen44 (BI). It counts as protein-complex assay. To be noted: Compound concentration 10.0 uM.
Assay [23] deals with T4, Alpha-2C adrenergic receptor (Homo sapiens) (UniProt P18825).
T4 sequence (whole entry): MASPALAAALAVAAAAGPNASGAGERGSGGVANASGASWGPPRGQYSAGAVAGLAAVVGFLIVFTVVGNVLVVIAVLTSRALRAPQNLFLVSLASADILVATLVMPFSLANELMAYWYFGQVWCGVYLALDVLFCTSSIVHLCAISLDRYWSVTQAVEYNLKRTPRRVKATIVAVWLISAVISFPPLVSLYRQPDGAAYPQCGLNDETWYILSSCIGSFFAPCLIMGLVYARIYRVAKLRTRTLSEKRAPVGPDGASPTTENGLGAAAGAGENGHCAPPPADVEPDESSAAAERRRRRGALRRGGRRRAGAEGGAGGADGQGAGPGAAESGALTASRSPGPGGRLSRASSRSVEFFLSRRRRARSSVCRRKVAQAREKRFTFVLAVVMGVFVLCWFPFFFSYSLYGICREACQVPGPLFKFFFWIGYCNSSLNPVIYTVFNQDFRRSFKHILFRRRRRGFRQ
Description: ALPHA2C/H Eurofins SafetyScreen44 (BI).

Chain of Beta-1 adrenergic receptor (Homo sapiens) (P08588 whole entry, looked up): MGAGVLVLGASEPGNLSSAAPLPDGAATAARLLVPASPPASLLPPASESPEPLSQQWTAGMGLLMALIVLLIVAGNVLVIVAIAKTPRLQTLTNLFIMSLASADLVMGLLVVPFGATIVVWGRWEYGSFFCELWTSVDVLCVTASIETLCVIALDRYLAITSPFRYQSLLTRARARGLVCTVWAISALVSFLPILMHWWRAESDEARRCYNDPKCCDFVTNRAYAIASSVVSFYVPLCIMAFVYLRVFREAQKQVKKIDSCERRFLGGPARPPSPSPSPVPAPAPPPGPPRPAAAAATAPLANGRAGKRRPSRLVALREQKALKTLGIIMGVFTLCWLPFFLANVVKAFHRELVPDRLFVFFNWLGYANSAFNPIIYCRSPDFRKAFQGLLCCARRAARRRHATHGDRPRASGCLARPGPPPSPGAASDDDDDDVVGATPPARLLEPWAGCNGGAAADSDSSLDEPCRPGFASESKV
Chain of Vasopressin V1a receptor (Homo sapiens) (P37288 whole entry, looked up): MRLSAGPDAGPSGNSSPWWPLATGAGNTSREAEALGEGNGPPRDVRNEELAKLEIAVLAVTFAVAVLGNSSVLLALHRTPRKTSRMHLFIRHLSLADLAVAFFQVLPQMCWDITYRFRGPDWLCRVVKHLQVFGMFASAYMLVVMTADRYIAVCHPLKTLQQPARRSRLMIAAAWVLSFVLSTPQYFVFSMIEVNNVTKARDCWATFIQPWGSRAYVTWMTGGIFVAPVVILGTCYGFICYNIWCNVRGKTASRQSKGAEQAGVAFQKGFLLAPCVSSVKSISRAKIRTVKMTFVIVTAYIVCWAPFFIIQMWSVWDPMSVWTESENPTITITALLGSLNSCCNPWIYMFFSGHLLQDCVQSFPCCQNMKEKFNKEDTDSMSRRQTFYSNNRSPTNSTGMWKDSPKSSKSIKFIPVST
Chain of B2 bradykinin receptor (Homo sapiens) (P30411 whole entry): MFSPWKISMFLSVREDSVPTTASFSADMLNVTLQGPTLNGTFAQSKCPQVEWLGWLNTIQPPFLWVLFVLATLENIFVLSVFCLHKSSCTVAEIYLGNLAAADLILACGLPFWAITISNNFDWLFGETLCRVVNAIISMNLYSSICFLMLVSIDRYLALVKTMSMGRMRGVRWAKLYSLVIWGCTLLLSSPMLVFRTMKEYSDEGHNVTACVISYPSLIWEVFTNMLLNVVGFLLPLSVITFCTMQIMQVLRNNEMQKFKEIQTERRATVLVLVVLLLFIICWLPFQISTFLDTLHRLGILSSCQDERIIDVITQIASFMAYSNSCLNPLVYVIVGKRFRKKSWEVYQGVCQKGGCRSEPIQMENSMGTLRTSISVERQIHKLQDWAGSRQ

For the molecule `COCCCS(=O)(=O)c1cc(C)c(-c2ccc(F)c3c2CC[C@H]3Oc2ccc3c(c2)OC[C@H]3CC(=O)O)c(C)c1`, the residual activity in assay [1] is 90%; in assay [2], 102%; in [5] it was 56%; in [7], 102%; in assay [8], 43%. Moreover, the inhibition is -8.43% in assay [3]; 13.6% in assay [4]; 3% in assay [6]; 30.7% in [9]; -1.57% in assay [10].

As to `Cc1cc(OCCC(C)(C)O)cc(C)c1-c1ccc(F)c2c1CC[C@H]2Oc1ccc2c(c1)OC[C@H]2CC(=O)O`, the residual activity in [11] is 100%; in [12], 91%; in [13], 103%; in assay [14], 100%; in assay [16] (Compound concentration 0.3 uM), 83%; in [16] (Compound concentration 1.0 uM) it was 75%. For the same molecule, the residual activity in assay [16] (Compound concentration 3.0 uM) is 60%; in assay [16] (Compound concentration 10.0 uM), 54%; in assay [16] (Compound concentration 30.0 uM) it was 28%; in assay [17] it was 103%; in assay [18], 99%; in assay [20] it was 113%. For the same molecule, the residual activity in [21] was 86%; in assay [22], 84%; in assay [23] (Compound concentration 0.1 uM), 93%; in assay [23] (Compound concentration 0.3 uM), 100%; in [23] (Compound concentration 1.0 uM) it was 95%; in assay [23] (Compound concentration 3.0 uM), 82%. The residual activity was 23% in assay [23] (Compound concentration 10.0 uM) and 1% in assay [23] (Compound concentration 30.0 uM). Moreover, the inhibition in assay [15] is 4.62%; in assay [4], 15.1%; in assay [19] it was -8.92%; in assay [6], 9.84%; in [9] it was 66.7%; in assay [10], 68.2%.
